Laboratory results taken from patent US20070082945A1, “Discodermolide compositions” (priority 2003, published 2007).
Values after ≈ are worked out from the molar mass of the structure shown.

What was measured:
[1] = Precipitation on direct i.v. infusion followed by normal saline flush; settings: direct i.v. infusion into the vein followed by a normal saline flush
Experimental: Preferably the infusion solution of the present invention is prepared by mixing the infusion concentrate with a diluent, such as 16.3% w/v ethanol in saline in a suitable container. A preferred formulation comprises 1 mL of 2 mg/mL infusion concentrate diluted with 1.6 mL of 16.3% w/v ethanol in saline to yield an infusion solution containing 0.77 mg/mL discodermolide in 40% propylene glycol, 10% ethanol and 50% normal saline. This solution is administered via i.v. infusion, or push into Y tubing containing a 0.9% normal saline drip, directly into the vein and the drug solution residue in the tubing will be flushed with normal saline. The volume of discodermolide solution given via i.v. push will vary from 0.3 mL (at the starting does of 0.2 mg or 0.13 mg/m^2) to 26 mL (for a dose of 20 mg or 11.43 mg/m^2) or 43 mL (for a dose of 33 mg or 19.2 mg/m^2).

[2] = Storage stability of infusion concentrate vials and infusion solution; format: physicochemical
Experimental: An infusion concentrate comprising 2 mg of discodermolide is dissolved in 98-100% propylene glycol (PG) (1.0 mL) and charged to 6 mL vials. The vials are used for storage and shipment. The vials are stable for a period of at least 2 years at a temperature of 2-8° C. The vehicle is prepared in a separate 2 mL single dose vial. Each mL of solution contains 7.3 mg of sodium chloride USP, and 163 mg of ethanol (EtOH) in water for injection(saline) (16.3% ethanol in 0.9% sodium chloride solution, 2 mL fill). The storage condition is 25° C. for the vehicle. Prior to i.v. administration, 1.6 mL of the vehicle is withdrawn with a sterile disposable syringe and injected into the vial containing the discodermolide. The solution is gently shaken until a clear homogeneous solution for infusion is obtained containing 0.77 mg/mL discodermolide in 40% propylene glycol, 10% ethanol and 50% normal saline. The ratio of discodermolide concentrate to the diluent vehicle in the diluted solution is 1:1.6 v/v. The i.v. solution thus formed is stable for a period of 8 hours at room temperature.

[3] = Effect of organic solvent ratio variation on solubility; format: physicochemical; settings: propylene glycol/ethanol/normal saline mixture, aqueous with cosolvent or surfactant or cyclodextrin
[4] = tested on: purified tubulin; settings: among the compounds known to induce polymerization; cited from earlier work
[5] = tested on: microtubules; settings: compared with paclitaxel; cited from earlier work
[6] = Stability of solution diluted 1:1.6 with 16.3% w/v ethanol in 0.9% sodium chloride, ambient conditions; format: physicochemical; settings: 0.77 mg/mL solution for infusion
Experimental: In this example, stability of discodermolide in solution diluted 1:1.6 with 16.3% w/v, ethanol in 0.9% sodium chloride solution (0.77 mg/mL) under ambient conditions is measured. Table 5 describes the amount of degradation product formed over a period of up to 24 hours. The stability is analyzed by determining formation of degradation products in each of the infusion solution as a function of time and temperature. Each sample is analyzed y HPLC with a UV detector. The solution for infusion was prepared by diluting a 2.0 mg/ml discodermolide concentrate with 16.3% ethanol in 0.9% sodium chloride solution in a 1:1.6 ration.

[7] = Solubility of discodermolide in various solvent systems measured by HPLC; format: physicochemical
Experimental: The solubility of discodermolide in various solvent systems is measured by HPLC and the results shown below: […]

[8] = tested on: tubulin; settings: competition with paclitaxel; cited from earlier work
[9] = Solubility and stability in 40% PG/10% ethanol/50% normal saline with hydrotropic agents; format: physicochemical; settings: aqueous with cosolvent or surfactant or cyclodextrin, read-out: Discodermolide Solubility
Source text: The solubility and stability of discodermolide in 40% propylene glycol/10% ethanol 50% normal saline diluted with hydrotropic agents is shown in Table 7.

For `C=C/C=C\C(C)[C@H](OC(N)=O)[C@@H](C)[C@H](O)[C@@H](C)C/C(C)=C\C(C)C(O)[C@@H](C)/C=C\[C@@H](O)C[C@@H]1OC(=O)[C@H](C)C(O)C1C` (single isomer, unassigned; (+)) [discodermolide, (+)-Discodermolide], the Precipitation on administration [1] was “will not cause any precipitation”, the “Period of stability of i.v. solution” value ([2]; 0.77 mg/mL in 40% propylene glycol, 10% ethanol, 50% normal saline, room temperature) was 8 h and the “Period of stability of infusion concentrate vials” value ([2]; 2 mg discodermolide in 1.0 mL 98-100% propylene glycol, 2-8° C.) was “at least 2 years”. It also gave a solubility ([3]; PG 38 / EtOH 9 / normal saline 53 (%, w/v)) of 640 µg/mL, a solubility ([3]; PG 38 / EtOH 9.5 / normal saline 52.5 (%, w/v)) of 700 µg/mL and a solubility ([3]; PG 40 / EtOH 8 / normal saline 52 (%, w/v)) of 620 µg/mL. For the same compound, the solubility ([3]; PG 40 / EtOH 9 / normal saline 51 (%, w/v)) was 770 µg/mL, the solubility ([3]; PG 40 / EtOH 9.6 / normal saline 50.4 (%, w/v)) was 870 µg/mL and the solubility ([3]; PG 40 / EtOH 10 / normal saline 50 (%, w/v)) was 960 µg/mL. For the same compound, the “Potency to induce polymerization of purified tubulin” value [4] was “the most potent”, the “Effectiveness in mechanism-based assays” value [5] was “more effective than paclitaxel” and the Total Impurities ([6]; 0 hours) was 0.20 % area. The Total Impurities ([6]; 2 hours) was 0.23 % area, the Total Impurities ([6]; 4 hours) was 0.34 % area and the Total Impurities ([6]; 8 hours) was 0.47 % area. It also gave a Total Impurities ([6]; 24 hours) of 0.80 % area, a solubility ([7]; 20% PEG 300/80% normal saline, aqueous with cosolvent or surfactant or cyclodextrin) of 20 µg/mL (≈ 33.7 µM) and a solubility ([7]; 20% propylene glycol/80% normal saline, aqueous with cosolvent or surfactant or cyclodextrin, 20% PG/80% normal saline) of 130 µg/mL (≈ 219 µM). For the same compound, the solubility ([7]; 30% ethanol/70% normal saline, aqueous with cosolvent or surfactant or cyclodextrin) was 200 µg/mL (≈ 337 µM), the solubility ([7]; 60% PEG 300/40% normal saline, aqueous with cosolvent or surfactant or cyclodextrin) was 400 µg/mL (≈ 674 µM) and the solubility ([7]; 60% ethanol/40% normal saline, aqueous with cosolvent or surfactant or cyclodextrin) was 2300 µg/mL (≈ 3870 µM). The solubility ([7]; 60% propylene glycol/40% normal saline, aqueous with cosolvent or surfactant or cyclodextrin, 60% PG/40% normal saline) was 530 µg/mL (≈ 893 µM), the solubility ([7]; 100% PEG 300, organic solvent or mixture) was > 20000 µg/mL and the solubility ([7]; 100% ethanol, organic solvent or mixture) was > 20000 µg/mL. For the same compound, the solubility ([7]; 100% propylene glycol, organic solvent or mixture, 100% PG) was > 20000 µg/mL, the Binding to tubulin [8] was “binds to tubulin competitively with paclitaxel” and the solubility ([9]; 40% PG/10% EtOH/4% benzoic acid in normal saline) was 1900 µg/mL (≈ 3200 µM). The solubility ([9]; 40% PG/10% EtOH/4% benzoic acid/1% benzyl alcohol in normal saline) was 2200 µg/mL (≈ 3700 µM) and the solubility ([9]; propylene glycol/ethanol/normal saline mixture, 40% PG/10% EtOH in normal saline) was 910 µg/mL (≈ 1530 µM).
